Assay results published in patent US7728028B2, “Substituted imidazoline compounds” (Gruenenthal GmbH, priority 2005, dated 2010).

target: T1, human μ-opiate receptor (Homo sapiens, UniProt P35372); experiment: Affinity for the human μ-opiate receptor ([3H]-naloxone displacement, SPA); conditions: Table 1, aldehydes; test substance 1 μmole/l; inhibition of specific [3H]-naloxone binding; CHO-K1 membranes; read-out: μ-Opioid receptor, % inhibition [1 μM]
T1 construct: purchased PerkinElmer Life Sciences, Zaventem, Belgium RB-HOM; host or cells: CHO-K1 cells (recombinant expression; membrane preparation)
T1 sequence (P35372 whole entry): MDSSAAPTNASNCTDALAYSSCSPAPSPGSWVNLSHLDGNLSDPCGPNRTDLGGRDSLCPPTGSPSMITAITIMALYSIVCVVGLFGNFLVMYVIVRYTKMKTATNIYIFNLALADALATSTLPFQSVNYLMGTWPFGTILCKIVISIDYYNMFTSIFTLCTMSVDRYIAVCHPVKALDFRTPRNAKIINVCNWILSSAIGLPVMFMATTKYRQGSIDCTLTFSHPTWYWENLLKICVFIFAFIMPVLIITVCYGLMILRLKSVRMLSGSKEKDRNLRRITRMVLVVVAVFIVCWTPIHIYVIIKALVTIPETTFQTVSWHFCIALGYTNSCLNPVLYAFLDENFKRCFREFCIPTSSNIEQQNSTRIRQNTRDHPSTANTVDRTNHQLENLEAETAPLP
Method in brief: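 CHO-K1 membranes expressing the receptor, incubated 90 min at room temperature with 1 nmol/l [3H]-naloxone and WGA-SPA beads in 50 mmol/l Tris-HCl with 0.06% BSA. Non-specific binding defined with 100 μmol/l naloxone. Value is % inhibition of specific binding at 1 μmol/l test substance.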

In the case of `CN(C)C(c1cccs1)C1CCC(C=O)CC1` (stereo not drawn) [Example 9d, 4-(dimethylaminothiophen-2-yl-methyl)-cyclohexane carbaldehyde], the inhibition at 1 µM is reported as 69%.

same assay, conditions: Table 2, Examples 11-161; test substance 1 μmole/l; inhibition of specific [3H]-naloxone binding; CHO-K1 membranes; read-out: μ-Opioid receptor, % inhibition [1 μM]

First: CCCN1C=NC(CCSC)(C(=O)OC)C1CC1CCC(C(CCc2ccccc2)N(C)C)CC1 (stereo not drawn) [Example 121, 5-[4-(1-dimethylamino-3-phenylpropyl)-cyclohexylmethyl]-4-(2-methylsulfanylethyl)-1-propyl-4,5-dihydro-1H-imidazole-4-carboxylic acid methyl ester]
Second: CCCN1C=NC(CCSC)(C(=O)OC)C1CC1CCC(C(c2cccc(F)c2)N(C)C)CC1 (stereo not drawn) [Example 112, 5-{4-[dimethylamino-(3-fluorophenyl)-methyl]-cyclohexylmethyl}-4-(2-methylsulfanyl-ethyl)-1-propyl-4,5-dihydro-1H-imidazole-4-carboxylic acid methyl ester]
The inhibition at 1 µM of the first is lower: 77% for the first, 95% for the second.

Going from `CCCN1C=NC(CC(C)C)(C(=O)OC)C1CC1CCC(C(c2ccc(Cl)cc2)N(C)C)CC1` (stereo not drawn) [Example 26, 5-{4-[(4-chlorophenyl)-dimethylaminomethyl]-cyclohexylmethyl}-4-isobutyl-1-propyl-4,5-dihydro-1H-imidazole-4-carboxylic acid methyl ester] to `CCCCN1C=NC(CC(C)C)(C(=O)OC)C1CC1CCC(C(c2ccc(Cl)cc2)N(C)C)CC1` (stereo not drawn) [Example 34, 1-butyl-5-{4-[(4-chlorophenyl)-dimethylaminomethyl]-cyclohexylmethyl}-4-isobutyl-4,5-dihydro-1H-imidazole-4-carboxylic acid methyl ester], the inhibition at 1 µM rises from 96% to 98%.

First: COC(=O)C1(CSC)N=CN(C2CCCCC2)C1CC1CCC(C(c2ccc(F)cc2)N(C)C)CC1 (stereo not drawn) [Example 153, 1-cyclohexyl-5-{4-[dimethylamino-(4-fluorophenyl)-methyl]-cyclohexylmethyl}-4-methylsulfanylmethyl-4,5-dihydro-1H-imidazole-4-carboxylic acid methyl ester]
Second: COC(=O)CCC1(C(=O)OC)N=CN(C2CCCCC2)C1CC1CCC(C(c2cccc(F)c2)N(C)C)CC1 (stereo not drawn) [Example 147, 1-cyclohexyl-5-{4-[dimethylamino-(3-fluorophenyl)-methyl]-cyclohexylmethyl}-4-(2-methoxycarbonylethyl)-4,5-dihydro-1H-imidazole-4-carboxylic acid methyl ester]
The inhibition at 1 µM of the first is lower: 93% for the first, 98% for the second.

First: CCCN1C=NC(CSCc2ccccc2)(C(=O)OC)C1C1CCC(C(c2ccc(Cl)cc2)N(C)C)CC1 (stereo not drawn) [Example 60, 4-benzylsulfanylmethyl-5-{4-[(4-chlorophenyl)-dimethylaminomethyl]-cyclohexyl}-1-propyl-4,5-dihydro-1H-imidazole-4-carboxylic acid methyl ester]
Second: CCCN1C=NC(CSCc2ccccc2)(C(=O)OC)C1C1CCC(C(c2cccc(F)c2)N(C)C)CC1 (stereo not drawn) [Example 58, 4-benzylsulfanylmethyl-5-{4-[dimethylamino-(3-fluorophenyl)-methyl]-cyclohexyl}-1-propyl-4,5-dihydro-1H-imidazole-4-carboxylic acid methyl ester]
The inhibition at 1 µM of the first is higher: 95% for the first, 81% for the second.

Going from `CCCCN1C=NC(CSC)(C(=O)OC)C1CC1CCC(C(c2ccc(F)cc2)N(C)C)CC1` (stereo not drawn) [Example 77, 1-butyl-5-{4-[dimethylamino-(4-fluorophenyl)-methyl]-cyclohexylmethyl}-4-methylsulfanylmethyl-4,5-dihydro-1H-imidazole-4-carboxylic acid methyl ester] to `CCCN1C=NC(CSC)(C(=O)OC)C1CC1CCC(C(c2cccc(F)c2)N(C)C)CC1` (stereo not drawn) [Example 158, 5-{4-[dimethylamino-(3-fluorophenyl)-methyl]-cyclohexylmethyl}-4-methylsulfanylmethyl-1-propyl-4,5-dihydro-1H-imidazole-4-carboxylic acid methyl ester], the inhibition at 1 µM rises from 88% to 95%.

First: CCCC1(C(=O)OC)N=CN(Cc2ccccc2)C1CC1CCC(C(c2ccc(F)cc2)N(C)C)CC1 (stereo not drawn) [Example 141, 1-benzyl-5-{4-[dimethylamino-(4-fluorophenyl)-methyl]-cyclohexylmethyl}-4-propyl-4,5-dihydro-1H-imidazole-4-carboxylic acid methyl ester]
Second: COC(=O)C1(CCSC)N=CN(Cc2ccccc2)C1CC1CCC(C(c2cccc(F)c2)N(C)C)CC1 (stereo not drawn) [Example 139, 1-benzyl-5-{4-[dimethylamino-(3-fluorophenyl)-methyl]-cyclohexylmethyl}-4-(2-methylsulfanyl-ethyl)-4,5-dihydro-1H-imidazole-4-carboxylic acid methyl ester]
The inhibition at 1 µM of the first is lower: 98% for the first, 100% for the second.

Compared with `COC(=O)C1(CSC)N=CN(C2CCCCC2)C1CC1CCC(C(CCc2ccccc2)N(C)C)CC1` (stereo not drawn) [Example 155, 1-cyclohexyl-5-[4-(1-dimethylamino-3-phenylpropyl)-cyclohexylmethyl]-4-methylsulfanylmethyl-4,5-dihydro-1H-imidazole-4-carboxylic acid methyl ester], `COC(=O)C1(Cc2ccc(Cl)cc2)N=CN(C2CCCCC2)C1CC1CCC(C(c2cccs2)N(C)C)CC1` (stereo not drawn) [Example 20, 4-(4-chlorobenzyl)-1-cyclohexyl-5-[4-(dimethylamino-thiophen-2-yl-methyl)-cyclohexylmethyl]-4,5-dihydro-1H-imidazole-4-carboxylic acid methyl ester] is higher in inhibition at 1 µM: 86% for the first, 95% for the second.

Compared with `CCCN1C=NC(CC(C)C)(C(=O)OC)C1C1CCC(C(c2ccc(Cl)cc2)N(C)C)CC1` (stereo not drawn) [Example 24, 5-{4-[(4-chlorophenyl)-dimethylaminomethyl]-cyclohexyl}-4-isobutyl-1-propyl-4,5-dihydro-1H-imidazole-4-carboxylic acid methyl ester], `CCCCN1C=NC(CCCC)(C(=O)OC)C1C1CCC(C(c2ccc(Cl)cc2)N(C)C)CC1` (stereo not drawn) [Example 33, 1,4-dibutyl-5-{4-[(4-chlorophenyl)-dimethylaminomethyl]-cyclohexyl}-4,5-dihydro-1H-imidazole-4-carboxylic acid methyl ester] is lower in inhibition at 1 µM: 89% for the first, 85% for the second.

Going from `COC(=O)C1(Cc2ccc(Cl)cc2)N=CN(C2CCCCC2)C1C1CCC(C(c2cccc(F)c2)N(C)C)CC1` (stereo not drawn) [Example 12, 4-(4-chlorobenzyl)-1-cyclohexyl-5-{4-[dimethylamino-(3-fluorophenyl)-methyl]-cyclohexyl}-4,5-dihydro-1H-imidazole-4-carboxylic acid methyl ester] to `COC(=O)C1(CC(C)C)N=CN(C2CCCCC2)C1C1CCC(C(c2ccc(Cl)cc2)N(C)C)CC1` (stereo not drawn) [Example 14, 5-{4-[(4-chlorophenyl)-dimethylaminomethyl]-cyclohexyl}-1-cyclohexyl-4-isobutyl-4,5-dihydro-1H-imidazole-4-carboxylic acid methyl ester], the inhibition at 1 µM rises from 73% to 92%.

Going from `CCCN1C=NC(Cc2ccc(Cl)cc2)(C(=O)OC)C1C1CCC(C(c2ccc(Cl)cc2)N(C)C)CC1` (stereo not drawn) [Example 25, 4-(4-chlorobenzyl)-5-{4-[(4-chlorophenyl)-dimethylaminomethyl]-cyclohexyl}-1-propyl-4,5-dihydro-1H-imidazole-4-carboxylic acid methyl ester] to `CCCCN1C=NC(Cc2ccc(Cl)cc2)(C(=O)OC)C1C1CCC(C(c2ccc(Cl)cc2)N(C)C)CC1` (stereo not drawn) [Example 32, 1-butyl-4-(4-chlorobenzyl)-5-{4-[(4-chlorophenyl)-dimethylaminomethyl]-cyclohexyl}-4,5-dihydro-1H-imidazole-4-carboxylic acid methyl ester], the inhibition at 1 µM falls from 83% to 74%.

First: CCCCC1(C(=O)OC)N=CN(CCc2ccccc2)C1CC1CCC(C(c2ccc(Cl)cc2)N(C)C)CC1 (stereo not drawn) [Example 45, 4-butyl-5-{4-[(4-chlorophenyl)-dimethylaminomethyl]-cyclohexylmethyl}-1-phenethyl-4,5-dihydro-1H-imidazole-4-carboxylic acid methyl ester]
Second: CCCN1C=NC(Cc2ccc(Cl)cc2)(C(=O)OC)C1CC1CCC(C(c2ccc(Cl)cc2)N(C)C)CC1 (stereo not drawn) [Example 27, 4-(4-chlorobenzyl)-5-{4-[(4-chlorophenyl)-dimethylaminomethyl]-cyclohexylmethyl}-1-propyl-4,5-dihydro-1H-imidazole-4-carboxylic acid methyl ester]
The inhibition at 1 µM of the first is higher: 97% for the first, 96% for the second.

First: CCCCN1C=NC(C(=O)OC)(C(C)CC)C1CC1CCC(C(c2ccc(Cl)cc2)N(C)C)CC1 (stereo not drawn) [Example 88, 1-butyl-4-sec-butyl-5-{4-[(4-chlorophenyl)-dimethylaminomethyl]-cyclohexylmethyl}-4,5-dihydro-1H-imidazole-4-carboxylic acid methyl ester]
Second: COC(=O)C1(Cc2ccc(Cl)cc2)N=CN(Cc2ccccc2)C1CC1CCC(C(c2ccc(Cl)cc2)N(C)C)CC1 (stereo not drawn) [Example 113, 1-benzyl-4-(4-chlorobenzyl)-5-{4-[(4-chlorophenyl)-dimethylaminomethyl]-cyclohexylmethyl}-4,5-dihydro-1H-imidazole-4-carboxylic acid methyl ester]
The inhibition at 1 µM of the first is higher: 98% for the first, 92% for the second.

Going from `COC(=O)C1(CSCc2ccccc2)N=CN(CCc2ccccc2)C1CC1CCC(C(c2cccc(F)c2)N(C)C)CC1` (stereo not drawn) [Example 82, 4-benzylsulfanylmethyl-5-{4-[dimethylamino-(3-fluorophenyl)-methyl]-cyclohexylmethyl}-1-phenethyl-4,5-dihydro-1H-imidazole-4-carboxylic acid methyl ester] to `COC(=O)C1(C)N=CN(Cc2ccccc2)C1CC1CCC(C(CCc2ccccc2)N(C)C)CC1` (stereo not drawn) [Example 146, 1-benzyl-5-[4-(1-dimethylamino-3-phenylpropyl)-cyclohexylmethyl]-4-methyl-4,5-dihydro-1H-imidazole-4-carboxylic acid methyl ester], the inhibition at 1 µM falls from 95% to 79%.
